Experimental findings from patent US11813268B2, “Mitofusin activators and uses thereof” (Albert Einstein College of Medicine, priority 2017, dated 2023) are described below.

Peptide text beside a SMILES is read from it.

The first assay deals with T1, human Mfn2 (Homo sapiens, UniProt O95140).
T1 construct: expressed in transfected cells; host or cells: HEK 293T
T1 sequence (O95140 1-757): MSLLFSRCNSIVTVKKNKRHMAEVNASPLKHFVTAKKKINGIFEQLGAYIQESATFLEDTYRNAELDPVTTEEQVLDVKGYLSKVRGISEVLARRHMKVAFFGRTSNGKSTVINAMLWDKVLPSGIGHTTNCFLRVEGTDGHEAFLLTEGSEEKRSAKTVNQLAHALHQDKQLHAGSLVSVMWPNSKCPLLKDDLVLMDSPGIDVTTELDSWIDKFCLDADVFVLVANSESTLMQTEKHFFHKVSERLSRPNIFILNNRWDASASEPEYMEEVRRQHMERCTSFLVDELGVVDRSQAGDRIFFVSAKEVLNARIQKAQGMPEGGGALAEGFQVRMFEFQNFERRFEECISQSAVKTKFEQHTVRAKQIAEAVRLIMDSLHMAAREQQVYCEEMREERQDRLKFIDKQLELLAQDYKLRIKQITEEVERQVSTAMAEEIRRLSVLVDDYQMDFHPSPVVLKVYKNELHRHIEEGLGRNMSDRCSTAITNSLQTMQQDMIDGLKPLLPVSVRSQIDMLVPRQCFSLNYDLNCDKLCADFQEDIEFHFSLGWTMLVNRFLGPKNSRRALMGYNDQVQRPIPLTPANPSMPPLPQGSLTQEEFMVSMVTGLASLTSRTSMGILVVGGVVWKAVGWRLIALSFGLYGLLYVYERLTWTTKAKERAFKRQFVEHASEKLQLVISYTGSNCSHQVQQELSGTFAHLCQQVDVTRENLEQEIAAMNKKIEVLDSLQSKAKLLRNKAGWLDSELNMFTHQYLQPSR
Briefly: FRET-based Mfn2 biosensor (wild type) in HEK 293T cells. Format: cell-based. Also on record: concentration or dose not given beside the values. The following applies: WT FRET-based Mfn2 biosensor, 2 h. The method, then: To generate FRET-based Mfn2 biosensor construct, pcDNA3.1-Flag-Mfn2 (5′Flag epitope cassette onto human Mfn2) was used as backbone, and mCerulean (cyan fluorescent protein; CFP) was fused onto 5′ of Mfn2 and mVenus (yellow fluorescent protein; YFP) onto 3′ of ORF of Mfn2 (20-22). […] Then, the mVenus fragment was fused into pcDNA3.1-Cerulean1-Mfn2 to generate pcDNA3.1-Cerulean1-Mfn2-mVenus with mega-mutagenesis PCR using mVenus fragment as mega primer. PCR conditions: lx 95° C. 10 min; 15×(95° C. 30 sec, […], 68° C. 18 min); 1×72° C. 10 min. The construct was confirmed by sequencing.
Cells were transfected with the total amount of 2.5 μg of DNA per well for the indicated Mfn2 FRET constructs using Lipofectamine® 3000 Reagent (Invitrogen) according to the manufacturer's protocol. The following day, transfected cells were transferred to a pre-coated with poly L-lysine 96-well black plate (2×10^4 cells/well). […] GTPγS (Sigma Aldrich) was used to inhibit GTPase activity of Mfn2. Subsequently, cells were treated for 2 h with MASMs or vehicle (0.1% DMSO). Dilutions of MASMs were performed using a TECAN D300e Digital Dispenser from 10 mM stock solutions. […] Acceptor/Donor ratio referred to the text and figures correspond to the ratio of fluorescence intensities (relative fluorescence units: RFU) detected by the acceptor filter/donor filter. Non-transfected cells were used to subtract background fluorescence from each of the aforementioned filters that were used in the study.
To evaluate the capacity of the selected hits to propel the pro-tethering conformation of Mfn2, a screening assay was developed based on a Forster resonance energy transfer (FRET) biosensor of Mfn2. […] Loss of intra-molecular HR1-HR2 interactions, occurring in the pro-tethering conformation of Mfn2, increase the distance between mCerulean and mVenus and lead to a decrease in the resonance energy that is transferred.
In the case of `CC(C)Cn1c(SC(C)C(=O)Nc2sc3c(c2C(N)=O)CCC3)nnc1N1CCOCC1` (centres unmarked) [MASM42], the “% of FRET reduction” value is given as −1.4%. On the same count and under the same terms, to `Cc1ccc(C(=O)C(C)Sc2nnc3c(=O)n(-c4ccc(Br)cc4)ccn23)cc1C` (centres unmarked) [MASM2] belongs −0.5%. As to `CC(Sc1nnc(Cc2cccs2)n1C1CC1)C(=O)Nc1sc2c(c1C(N)=O)CCC2` (centres unmarked) [MASM31], the “% of FRET reduction” value was 30.7%. Still for that read-out and setting: in the case of `Cc1ccc(NC(=O)CC2SC(CC(c3ccc(C(C)C)cc3)c3c(O)[nH]c(=O)[nH]c3=O)=NC2=O)c(C)c1` (centres unmarked) [MASM17] it was −5.9%. With `CC(=O)NC12CC3CC(C1)CC(C(=O)NCCSCc1ccc(C)cc1)(C3)C2` [MASM13], the “% of FRET reduction” value is on record as −4.6%.

In the case of `CC(c1nnc(SCC(=O)Nc2sc3c(c2C(N)=O)CCC3)n1-c1ccc(F)cc1)N(C)C` (centres unmarked) [MASM33], the “% of FRET reduction” value is 31.9%.

On to `Cn1c(SCC(=O)Nc2sc3c(c2C(N)=O)CCCC3)nnc1C1CC1` [MASM44], for which the “% of FRET reduction” value amounted to 23.3%. On to `CC(Sc1nnc(Cc2ccccc2)n1C)C(=O)Nc1sc2c(c1C(N)=O)CCC2` (centres unmarked) [MASM35], for which the “% of FRET reduction” value was 25.9%. The same measure, in the same setting: in the case of `CC(c1cccc([N+](=O)[O-])c1)N(C)CC(=O)NCCSCc1ccccc1C#N` (centres unmarked) [MASM5] it was 0%.

For `CC(Sc1nnc2c(Cl)cc(C(F)(F)F)cn12)C(=O)Nc1sc2c(c1C(N)=O)CCC2` (centres unmarked) [MASM34], the “% of FRET reduction” value came out at 19.4%. Still for that read-out and setting: to `S=C(NCCSCc1ccco1)NC1CC2CCC1C2` (centres unmarked) [MASM15] belongs −3.6%; to `COc1ccc2c(c1)C1(SCCN1C(=O)c1ccccc1C)C(=O)N2Cc1cccc(C(F)(F)F)c1` (centres unmarked) [MASM9], 1.1%; to `CC(/N=N/C(=N)SC1CC(=O)N(c2cccc(C(=O)O)c2)C1=O)c1ccccc1` (centres unmarked) [MASM4], −8.6%. As for `CC(Sc1nccn1-c1cccc(F)c1)C(=O)Nc1sc2c(c1C(N)=O)CCC2` (centres unmarked) [MASM41], the “% of FRET reduction” value worked out at 10.2%. As for `COc1ccc(SC(C)C(=O)Nc2cc[nH]n2)cc1` (centres unmarked) [MASM18], the “% of FRET reduction” value is −5.8%.

`Cc1ccc(CSCCNC(=O)C2CCN(c3ccc4nnc(C(F)(F)F)n4n3)CC2)cc1` [MASM3]: the “% of FRET reduction” value is −14.1%. On the same count and under the same terms, to `CC(Sc1nc(C2CC2)nc2c1c(=O)[nH]c(=O)n2C1CC1)C(=O)NCC1CCCCC1` (centres unmarked) [MASM8] belongs 1.2%; to `O=C(CSCc1ccc(F)cc1)N1CCc2c([nH]c3ccccc23)C1c1ccc(Cl)cc1` (centres unmarked) [MASM11], 1.97%; to `CC(Sc1nnc(-c2cccs2)n1-c1ccccc1)C(=O)Nc1sc2c(c1C(N)=O)CCC2` (centres unmarked) [MASM36], 11.1%. Still for that read-out and setting: in the case of `NC(=O)c1c(NC(=O)CSc2nnc(C3CC3)n2-c2ccccc2)sc2c1CCC2` [MASM21] it was 27.1%; in that of `CC(Sc1nnc(C2CC2)n1-c1ccccc1)C(=O)NC(N)=O` (centres unmarked) [MASM19], 2.7%; in that of `NC(=O)c1c(NC(=O)CSc2nnc(C3CC3)n2Cc2ccccc2)sc2c1CCC2` [MASM43], 14.8%. On the same count and under the same terms, in the case of `CC(Sc1nnc(-c2ccccc2)n1-c1ccccc1)C(=O)Nc1sc2c(c1C(N)=O)CCC2` (centres unmarked) [MASM20] it was 10.1%; in that of `Cc1cc(NC(=O)C(C)SCC(=O)Nc2ccc(NC(C)c3ccccc3)cc2)no1` (centres unmarked) [MASM1], −5.3%. Turning to `CCn1c(Cc2ccccc2)nnc1SC(C)C(=O)Nc1sc2c(c1C(N)=O)CCC2` (centres unmarked) [MASM38], the “% of FRET reduction” value is 9.9%. Still for that read-out and setting: to `Cc1ccc(-c2nnc(SC(C)C(=O)Nc3sc4c(c3C(N)=O)CCC4)n2-c2ccccc2)o1` (centres unmarked) [MASM23] belongs 13.9%; to `CC(Sc1nccn1Cc1ccccc1)C(=O)Nc1sc2c(c1C(N)=O)CCC2` (centres unmarked) [MASM37], 21.0%. In the case of `Cc1nnc(SCC(=O)Nc2sc3c(c2C(N)=O)CCC3)n1-c1ccccc1` [MASM26], the “% of FRET reduction” value was determined as 37.0%. Consider `CC(Sc1nnnn1-c1ccc(O)cc1)C(=O)Nc1sc2c(c1C(N)=O)CCC2` (centres unmarked) [MASM40], for which the “% of FRET reduction” value worked out at 22.6%. The same measure, in the same setting: in the case of `CC(Sc1nnc(-c2ccco2)n1-c1ccccc1)C(=O)Nc1sc2c(c1C(N)=O)CCC2` (centres unmarked) [MASM22] it was 31.7%.

With `CC(Sc1nnc(-c2ccco2)n1C1CCCCC1)C(=O)Nc1sc2c(c1C(N)=O)CCC2` (centres unmarked) [MASM39], the “% of FRET reduction” value came to 9.9%. With `Cc1ccccc1-n1c(SCC(=O)Nc2sc3c(c2C(N)=O)CCC3)nnc1-c1ccncc1` [MASM27], the “% of FRET reduction” value worked out at 30.0%. The same measure, in the same setting: in the case of `c1ccc(CSCCc2nc(C3CCOC3)no2)cc1` (centres unmarked) [MASM12] it was −4.5%. Regarding `CC(Sc1nncn1-c1ccccc1)C(=O)Nc1sc2c(c1C(N)=O)CCC2` (centres unmarked) [MASM29], the “% of FRET reduction” value amounted to 16.5%. Still for that read-out and setting: in the case of `O=C(NCCSCc1ccccc1)C1CCCCO1` (centres unmarked) [MASM16] it was −11.2%. On the same count and under the same terms, to `CCC(SC1Cc2cc(OC)c(OC)cc2-c2nc(CCn3nc(C)cc3C)nn21)C(=O)Nc1ccc(F)cc1` (centres unmarked) [MASM6] belongs −0.7%. Still for that read-out and setting: to `C=CCn1c(SCC(=O)Nc2sc3c(c2C(N)=O)CCC3)nnc1C1CCCCC1` [MASM30] belongs 17.7%. `CCC(C)NC(=O)c1ccccc1NC(=O)C(C)Sc1ccc(C)cc1` (centres unmarked) [MASM14]: the “% of FRET reduction” value is reported as −10%. Take `CC1CCc2c(sc(NC(=O)CSc3nnc(C4CC4)n3-c3ccccc3)c2C(N)=O)C1` (centres unmarked) [MASM24]: the “% of FRET reduction” value is 18.9%. `CC(Sc1nnnn1C1CC1)C(=O)Nc1sc2c(c1C(N)=O)CCC2` (centres unmarked) [MASM45]: the “% of FRET reduction” value came out at 26.4%. On the same count and under the same terms, in the case of `CC(Sc1nnc(C2CC2)n1-c1ccccc1)C(=O)Nc1sc2c(c1C#N)CCCCC2` (centres unmarked) [MASM28] it was 8.0%; in that of `NC(=O)c1c(NC(=O)CSc2nc(C3CC3)n(-c3ccccc3)n2)sc2c1CCC2` [MASM32], 37.0%; in that of `CC(Sc1nnc(C2CC2)n1Cc1ccccc1)C(=O)Nc1sc2c(c1C(N)=O)CCC2` (centres unmarked) [MASM25], 32.2%.

In the next assay the test system is WT MEFs. Nature of the assay: cells. The settings on record: read-out: EC50 for inducing fusion (Mito AR); WT MEFs, mitochondrial aspect ratio. The source says:
Next, it was visually examined if MASM7 could induce mitochondrial fusion in MEFs, using mitochondrial aspect ratio (mitochondrial length/width, reflecting fusion) as a readout. […] (FIG. 5).
One may read the EC50 as the midpoint of the concentration-response curve. `CC[C@H](C)[C@H](NC(=O)CNC(=O)[C@H](CCCNC(=N)N)NC(=O)[C@@H](NC(=O)[C@H](CCC(=O)O)NC(=O)[C@H](C)NC(=O)[C@@H](NC(=O)[C@@H](N)CCC(N)=O)[C@@H](C)CC)C(C)C)C(=O)N[C@@H](CCSC)C(=O)N[C@@H](CC(=O)O)C(=O)N[C@@H](CO)C(=O)N[C@@H](CC(C)C)C(=O)N[C@@H](Cc1c[nH]cn1)C(=O)N[C@@H](CCSC)C(=O)N[C@@H](C)C(=O)N[C@@H](C)C(=O)N[C@@H](CCCNC(=N)N)C(=O)NCC(=O)NCC(=O)N[C@@H](Cc1ccc(O)cc1)C(=O)NCC(=O)N[C@@H](CCCNC(=N)N)C(=O)N[C@@H](CCCCN)C(=O)N[C@@H](CCCCN)C(=O)N[C@@H](CCCNC(=N)N)C(=O)N[C@@H](CCCNC(=N)N)C(=O)N[C@@H](CCC(N)=O)C(=O)N[C@@H](CCCNC(=N)N)C(=O)N[C@@H](CCCNC(=N)N)C(=O)N[C@@H](CCCNC(=N)N)C(=O)O` [367-384 Gly, reference compound] (H-QIAEVRGIMDSLHMAARGGYGRKKRRQRRR-OH): the EC50 was 340 nM.
